For eleven compounds, TGI results are on record in PubChem BioAssay (NCI).

Common to all, as to assay: NCI-60 cell line screen, 48 h
Assay [1] deals with OVCAR-5 ovarian.
Assay [2] relates to HL-60(TB) leukemia.
In assay [3] the test system is OVCAR-8 ovarian.
For assay [4], the system named is LOX IMVI melanoma.
The test system of assay [5] is HOP-62 NSCLC.
The test system of assay [6] is NCI/ADR-RES ovarian.
The subject of assay [7] is MDA-MB-435.
The subject of assay [8] is SK-MEL-28 melanoma.
For assay [9], the system named is A549 NSCLC.
For assay [10], the system named is NCI-H522 lung.
Assay [11] deals with EKVX NSCLC.
Assay [12] deals with SK-OV-3 ovarian.
Assay [13] relates to NCI-H460 lung.
Assay [14] deals with IGROV1 ovarian.
For assay [15], the system named is SF-268 CNS.
The test system of assay [16] is UACC-62 melanoma.
For assay [17], the system named is CCRF-CEM leukemia.
Assay [18] relates to NCI-H226 lung.
The subject of assay [19] is U251 CNS.

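Growth conditions: 96-well plates. Treatment: test compound, 48 hours, 5 concentrations. Analysis: linear interpolation between bracketing concentrations; unreached endpoints set to highest concentration. TGI: concentration producing complete growth inhibition.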

`COc1cccc(C2c3cc4c(cc3OC(C)(N3CCCC3)C2C)OCO4)c1` (centres undefined): the TGI in assay [1] is 47.5 µM; in assay [2] it was > 100 µM; in [3], 64.1 µM; in [4], 25.1 µM; in assay [5], 20.6 µM; in assay [6] it was 40.2 µM. The TGI was 32.9 µM in [7]; > 100 µM in assay [8]; 32.1 µM in assay [9]; 5.7 µM in assay [10]; 92.1 µM in [11]; 41.5 µM in [12]. The TGI in assay [13] is 26.4 µM; in [14], 37.9 µM; in assay [15], > 100 µM; in assay [16] it was 23.6 µM; in assay [17], > 100 µM; in assay [18], 27.3 µM. In assay [19], the TGI is 35.8 µM.

As for `CC1C=CN(N(C)C)C2=C1C(=O)c1cnccc1C2=O` (centres undefined), the TGI in [1] was found to be 2.83 µM; in assay [2], 4.66 µM; in assay [3], 3.67 µM; in assay [4], 0.307 µM; in assay [5] it was 1.42 µM; in assay [6], 4.09 µM. In addition, the TGI in assay [7] was determined as 0.43 µM; in [8] it was 2.07 µM; in [9] it was 2.11 µM; in assay [10], 0.55 µM; in assay [11] it was 2.07 µM; in assay [12], 2.81 µM. Moreover, the TGI came to 0.389 µM in [13]; 1.07 µM in assay [14]; 5.21 µM in [15]; 0.342 µM in assay [16]; 5.01 µM in assay [17]; 2.14 µM in assay [18]. The compound also showed a TGI in [19] of 2.49 µM.

Regarding `CC(=O)N(C)CCc1c[nH]c2ccccc12`, the TGI in [1], in assay [2], in assay [3], in assay [4], in assay [5] and in assay [6] was > 100 µM in each case. The TGI in assay [7], in [8], in assay [9], in assay [10], in assay [11] and in assay [12] was > 100 µM each time. Also, the TGI in [13], in [14], in assay [15], in assay [16], in [17] and in assay [18] was > 100 µM in each case. Moreover, the TGI in assay [19] is > 100 µM.

Consider `CC1=C(/C=C/C(C)=C/C=C/C(C)=C/C(=O)OC2CC(n3cc(F)c(=O)[nH]c3=O)OC2CO)C(C)(C)CCC1` (centres undefined), for which the TGI in assay [1] worked out at 36.8 µM; in assay [2] it was 7.37 µM; in assay [3], 23.6 µM; in assay [4] it was 20.6 µM; in assay [5], 13.7 µM; in assay [6] it was 24.9 µM. Moreover, the TGI in assay [7] was found to be 25.2 µM; in [8] it was 24.6 µM; in assay [9], 17.6 µM; in [10], 11.4 µM; in assay [11], 32.9 µM; in assay [12], 19.7 µM. For the same compound, the TGI in [13] worked out at 15.3 µM; in assay [14], 24.6 µM; in [15], 19.5 µM; in assay [16], 4.96 µM; in [17] it was 31.8 µM; in assay [18] it was 52.7 µM. In assay [19], this compound registered a TGI of 20 µM.

Turning to `COC1(OC)CCCc2c1no[n+]2[O-]`, the TGI in [1], in assay [2], in assay [3], in assay [4], in assay [5] and in [6] was > 100 µM throughout. In addition, the TGI in assay [7], in assay [8], in assay [9], in assay [10], in assay [11] and in assay [12] was > 100 µM throughout. The TGI in assay [13], in assay [14], in assay [15], in assay [16], in assay [17] and in assay [18] was > 100 µM each time. Further, the TGI in [19] is > 100 µM.

As to `CCOC(=O)/C=C(/C(=O)OCC)n1cnc2c(=O)[nH]c(NC(C)=O)nc21`, the TGI in [1], in assay [2], in assay [3], in assay [4], in assay [5] and in [6] was > 100 µM throughout. In addition, the TGI in [7], in assay [8], in assay [9], in assay [10], in [11] and in assay [12] was > 100 µM each time. The TGI in assay [13], in assay [14], in [15], in [16], in assay [17] and in [18] was > 100 µM each time. In addition, in assay [19], the TGI was > 100 µM.

Take `O=C(O)CCSC(CC1(c2ccc(Cl)cc2)NC(=O)CCS1)c1ccccc1` (centres undefined): the TGI is 37 µM in assay [1]; > 100 µM in assay [2]; 39.5 µM in assay [3]; > 100 µM in assay [4]; 44.1 µM in assay [5]; 49.3 µM in assay [6]. Moreover, the TGI was 29.8 µM in [7]; 37.7 µM in assay [8]; > 63.1 µM in assay [9]; 41.7 µM in assay [10]; 46.9 µM in [11]; 38 µM in [12]. In addition, the TGI in [13] stood at 64.7 µM; in assay [14], 31.7 µM; in assay [15], 38.4 µM; in assay [16], 39.7 µM; in assay [17] it was 24.8 µM; in assay [18], 40.8 µM. The TGI in assay [19] is 42.2 µM.

Regarding `COC(=O)/C=C\C(C#N)(C#N)N=Cc1cc(Br)cs1`, the TGI in [1] is 20.8 µM; in assay [2] it was 0.12 µM; in [3], 11.1 µM; in [4], 4.51 µM; in assay [5] it was 33 µM; in assay [6], 36.3 µM. Also, the TGI came out at 8.34 µM in assay [7]; 10.4 µM in [8]; 32.4 µM in assay [9]; 2.9 µM in assay [10]; 18.7 µM in assay [11]; 33.6 µM in assay [12]. Besides, the TGI worked out at 40.7 µM in assay [13]; 14.1 µM in assay [14]; 16.5 µM in [15]; 33 µM in assay [16]; 2.38 µM in assay [17]; 35.3 µM in assay [18]. For the same compound, the TGI in assay [19] came to 29.3 µM.

Regarding `CCOC(=O)C(CCN1CCC2(CC1)C(=O)N(C)CN2c1ccccc1)C(=O)OCC`, the TGI in [1], in assay [2], in assay [3], in assay [4], in [5] and in assay [6] was > 100 µM each time. Moreover, the TGI in [7], in assay [8], in assay [9], in assay [10], in assay [11] and in assay [12] was > 100 µM throughout. The TGI in assay [13], in [14], in [15], in assay [16], in assay [17] and in assay [18] was > 100 µM in each case. Besides, in assay [19], the TGI was > 100 µM.

For the compound `Cn1c2c(c3ccccc31)CCN1C(=O)CN(C(=O)C3CCCCC3)CC21` (centres undefined), the TGI in [1], in assay [2], in [3], in assay [4], in assay [5] and in assay [6] was > 100 µM throughout. The TGI in assay [7], in assay [8], in assay [9], in [10], in assay [11] and in assay [12] was > 100 µM throughout. For the same compound, the TGI in assay [13], in assay [14], in assay [15], in [16], in assay [17] and in [18] was > 100 µM throughout. Moreover, in assay [19], the TGI was > 100 µM.

Take `CCOC(=O)Cc1ccc(Nc2nc3ccccc3nc2C(=O)OCC)cc1`: the TGI in [1], in assay [2], in assay [3], in assay [4], in [5] and in assay [6] was > 100 µM in each case. Besides, the TGI in assay [7], in assay [8], in assay [9], in assay [10], in [11] and in [12] was > 100 µM each time. Further, the TGI in assay [13], in [14], in assay [15], in [16], in [17] and in assay [18] was > 100 µM each time. The TGI in [19] is > 100 µM.
